Experimental data as given in patent publication US11857519B2, “Compounds and methods for the targeted degradation of enhancer of zeste homolog 2 polypeptide” (Arvinas Operations, Inc., priority 2016, dated 2024).

molecular target: T1, EZH2 (Homo sapiens, UniProt Q15910); test: Cellular assay of target protein degradation (VCaP cells, ELISA); format: cell-based; settings: 4 hours, protein degradation range at indicated concentration (relative to DMSO control)
T1 construct: Protocol of the Cellular Assay of Target Protein Degradation (VCaP Cells, ELISA); endogenous in cells; host or cells: VCaP cells
T1 sequence (Q15910 whole entry): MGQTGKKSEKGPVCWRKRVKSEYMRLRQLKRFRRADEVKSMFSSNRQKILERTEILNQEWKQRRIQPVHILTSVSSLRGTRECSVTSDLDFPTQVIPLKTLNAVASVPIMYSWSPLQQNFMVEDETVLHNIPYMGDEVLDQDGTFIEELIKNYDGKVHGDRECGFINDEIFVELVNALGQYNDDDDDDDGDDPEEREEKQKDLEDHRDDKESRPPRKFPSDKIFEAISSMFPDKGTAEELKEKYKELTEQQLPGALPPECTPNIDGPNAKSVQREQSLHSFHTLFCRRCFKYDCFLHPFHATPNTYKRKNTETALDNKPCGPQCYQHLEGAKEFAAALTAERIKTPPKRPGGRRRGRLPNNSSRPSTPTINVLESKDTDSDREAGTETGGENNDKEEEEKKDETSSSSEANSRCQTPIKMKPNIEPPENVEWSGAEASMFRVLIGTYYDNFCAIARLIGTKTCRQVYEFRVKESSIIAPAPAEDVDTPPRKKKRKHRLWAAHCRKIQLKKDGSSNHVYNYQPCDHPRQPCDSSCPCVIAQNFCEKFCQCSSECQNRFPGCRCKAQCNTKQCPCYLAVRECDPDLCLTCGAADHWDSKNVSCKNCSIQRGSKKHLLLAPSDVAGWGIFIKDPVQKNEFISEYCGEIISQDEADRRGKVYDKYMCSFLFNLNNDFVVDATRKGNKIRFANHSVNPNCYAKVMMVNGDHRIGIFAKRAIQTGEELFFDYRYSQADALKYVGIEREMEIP
T1 sequence (O75530 whole entry partner): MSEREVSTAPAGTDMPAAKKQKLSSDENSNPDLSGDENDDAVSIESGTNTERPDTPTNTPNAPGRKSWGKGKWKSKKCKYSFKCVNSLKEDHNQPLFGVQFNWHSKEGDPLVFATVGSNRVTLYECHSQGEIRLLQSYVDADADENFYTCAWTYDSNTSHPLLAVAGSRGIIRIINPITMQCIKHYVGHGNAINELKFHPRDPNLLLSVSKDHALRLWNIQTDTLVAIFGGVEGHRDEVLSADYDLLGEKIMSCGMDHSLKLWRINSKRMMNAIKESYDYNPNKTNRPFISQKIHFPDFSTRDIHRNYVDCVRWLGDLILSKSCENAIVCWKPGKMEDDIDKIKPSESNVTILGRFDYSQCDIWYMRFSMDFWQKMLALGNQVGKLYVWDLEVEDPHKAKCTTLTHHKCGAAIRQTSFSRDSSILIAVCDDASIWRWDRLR
T1 sequence (Q15022 whole entry partner): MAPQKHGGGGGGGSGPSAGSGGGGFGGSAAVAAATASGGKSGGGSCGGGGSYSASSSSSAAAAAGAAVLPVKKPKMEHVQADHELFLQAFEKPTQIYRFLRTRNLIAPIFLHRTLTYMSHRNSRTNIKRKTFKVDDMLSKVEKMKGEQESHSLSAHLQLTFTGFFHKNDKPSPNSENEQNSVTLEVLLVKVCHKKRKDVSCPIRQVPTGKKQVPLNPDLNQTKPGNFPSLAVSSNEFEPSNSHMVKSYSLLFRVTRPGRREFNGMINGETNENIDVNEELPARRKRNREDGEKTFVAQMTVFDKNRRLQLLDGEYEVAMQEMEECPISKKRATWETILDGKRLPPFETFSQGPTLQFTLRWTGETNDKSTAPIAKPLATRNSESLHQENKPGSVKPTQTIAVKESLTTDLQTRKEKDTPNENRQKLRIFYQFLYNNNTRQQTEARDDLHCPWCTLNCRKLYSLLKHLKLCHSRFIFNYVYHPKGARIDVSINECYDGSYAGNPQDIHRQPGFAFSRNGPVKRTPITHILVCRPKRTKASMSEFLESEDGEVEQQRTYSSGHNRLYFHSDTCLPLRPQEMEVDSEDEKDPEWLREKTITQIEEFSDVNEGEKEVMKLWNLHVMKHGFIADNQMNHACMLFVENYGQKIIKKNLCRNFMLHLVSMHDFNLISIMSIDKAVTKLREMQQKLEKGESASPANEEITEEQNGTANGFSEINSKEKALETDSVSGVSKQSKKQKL
Description: Protocol of the Cellular Assay of Target Protein Degradation (VCaP Cells, ELISA).
For detection Cell Signaling PathScan Sandwich ELISA Catalog #12850 Lot 11 was used. VCaP cells were cultured in ATCC DMEM+ATCC FBS and plated 40,000/well 100 μl/well in RPMI P/S with 5% CSS Omega (bovine) serum into a 96 well plate. The cells were grown for a minimum of 3 days, dosed with compounds in 0.1% DMSO (diluted with 5% CSS) and incubated with aspiration for 4 hours. 100 μl of 1× Cell Signaling lysis buffer #9803 (36 mL dH2O+4 mL Cell Signaling lysis buffer) was added. The incubation was placed on cold room shaker for 10 minutes at speed 8-9. 5 μl to 100 μL of Diluent was transferred to ELISA plate (0.15 μg/mL−0.075 μg/mL) and stored at 4° C. overnight on cold room shaker speed 5 (gentle swirl) and then shaken next morning at 37° C. for 30 minutes. The preparation was washed 4×200 μl with ELISA wash buffer and aspirated with eight-channel aspirator. 100 μl/well of target protein detection antibody was added after, which the preparation was covered and shaken at 37° C. for 1 hour. 100 μl TMB was added, and the mixture was shaken for 5 min while under observation. When TMB turned light blue, 100 μl of Stop solution was added, and the mixture was shaken and read at 450 nm. Also read at 562 nm for background subtraction.

Row | Compound | percent target protein degradation class
1 | CCN(c1cc(-c2ccc(OCCCCOc3cc(C(C(=O)N4C[C@H](O)C[C@H]4C(=O)N[C@@H](C)c4ccc(-c5scnc5C)cc4)C(C)C)on3)cc2)cc(C(=O)NCc2c(C)cc(C)[nH]c2=O)c1C)C1CCOCC1 (stereo partly drawn) [Compound 107, (2S,4R)-1-(2-(3-(4-(3′-((4,6-dimethyl-2-oxo-1,2-dihydropyridin-3-yl)methylcarbamoyl)-5′-(ethyl(tetrahydro-2H-pyran-4-yl)amino)-4′-methylbiphenyl-4-yloxy)butoxy)isoxazol-5-yl)-3-methylbutanoyl)-4-hydroxy-N—((S)-1-(4-(4-methylthiazol-5-yl)phenyl)ethyl)pyrrolidine-2-carboxamide] | A (A = degradation more than 60%)
2 | CCN(c1cc(-c2ccc(OCCCOCCCOCCCOc3cc(-c4scnc4C)ccc3CNC(=O)[C@@H]3C[C@@H](O)CN3C(=O)[C@H](C(C)C)N3Cc4ccccc4C3=O)cc2)cc(C(=O)NCc2c(C)cc(C)[nH]c2=O)c1C)C1CCOCC1 [Compound 39, (2S,4R)-N-({2-[3-(3-{3-[4-(3-{[(4,6-dimethyl-2-oxo-1,2-dihydropyridin-3-yl)methyl]carbamoyl}-5-[ethyl(oxan-4-yl)amino]-4-methylphenyl)phenoxy]propoxy}propoxy)propoxy]-4-(4-methyl-1,3-thiazol-5-yl)phenyl}methyl)-4-hydroxy-1-[(2S)-3-methyl-2-(1-oxo-2,3-dihydro-1H-isoindol-2-yl)butanoyl]pyrrolidine-2-carboxamide] | B (B = degradation between 30% and 60%)
3 | CCN(c1cc(-c2ccc(OCCOCCOCCOCCNc3cccc4c3C(=O)N(C3CCC(=O)NC3=O)C4=O)cc2)cc(C(=O)NCc2c(C)cc(C)[nH]c2=O)c1C)C1CCOCC1 (stereo not shown) [Compound 17, N-[(4,6-dimethyl-2-oxo-1,2-dihydropyridin-3-yl)methyl]-5-[4-({1-[2-(2,6-dioxopiperidin-3-yl)-1,3-dioxo-2,3-dihydro-1H-isoindol-4-yl]-4,7,10-trioxa-1-azadodecan-12-yl}oxy)phenyl]-3-[ethyl(oxan-4-yl)amino]-2-methylbenzamide] | B (B = degradation between 30% and 60%)
4 | CCN(c1cc(-c2ccc(OCCOCCOCCOCCOCCNc3cccc4c3C(=O)N(C3CCC(=O)NC3=O)C4=O)cc2)cc(C(=O)NCc2c(C)cc(C)[nH]c2=O)c1C)C1CCOCC1 (stereo not shown) [Compound 18, N-[(4,6-dimethyl-2-oxo-1,2-dihydropyridin-3-yl)methyl]-5-[4-({1-[2-(2,6-dioxopiperidin-3-yl)-1,3-dioxo-2,3-dihydro-1H-isoindol-4-yl]-4,7,10,13-tetraoxa-1-azapentadecan-15-yl}oxy)phenyl]-3-[ethyl(oxan-4-yl)amino]-2-methylbenzamide] | B (B = degradation between 30% and 60%)
5 | CCN(c1cc(-c2ccc(OCCCOCCOc3cc(-c4scnc4C)ccc3CNC(=O)[C@@H]3C[C@@H](O)CN3C(=O)[C@H](C(C)C)N3Cc4ccccc4C3=O)cc2)cc(C(=O)NCc2c(C)cc(C)[nH]c2=O)c1C)C1CCOCC1 [Compound 56, (2S,4R)-N-{[2-(2-{3-[4-(3-{[(4,6-dimethyl-2-oxo-1,2-dihydropyridin-3-yl)methyl]carbamoyl}-5-[ethyl(oxan-4-yl)amino]-4-methylphenyl)phenoxy]propoxy}ethoxy)-4-(4-methyl-1,3-thiazol-5-yl)phenyl]methyl}-4-hydroxy-1-[(2S)-3-methyl-2-(1-oxo-2,3-dihydro-1H-isoindol-2-yl)butanoyl]pyrrolidine-2-carboxamide] | B (B = degradation between 30% and 60%)
6 | (2R,3S,4R,5S)-3-(3-chloro-2- fluorophenyl)-4-(4-chloro-2- fluorophenyl)-4-cyano-N-[4- ({1-[4-(3-{[(4,6-dimethyl-2- oxo-1,2-dihydropyridin-3- yl)methyl]carbamoyl}-5- [ethyl(oxan-4-yl)amino]-4- methylphenyl)phenyl- 1,4,7,10,13,16- hexaoxaoctadecan-18- yl}carbamoyl)-2- methoxyphenyl]-5-(2,2- dimethylpropyl)pyrrolidine-2- carboxamide [Compound 27] | B (B = degradation between 30% and 60%)
7 | CCN(c1cc(-c2ccc(CN3CCC(CN4CCN(c5ccc6c(c5)C(=O)N(C5CCC(=O)NC5=O)C6=O)CC4)CC3)cc2)cc(C(=O)NCc2c(C)cc(C)[nH]c2=O)c1C)C1CCOCC1 (stereo not shown) [Compound 115, N-((4,6-dimethyl-2-oxo-1,2-dihydiopyridin-3-yl)methyl)-4′-((4-((4-(2-(2,6-dioxopiperidin-3-yl)-1,3-dioxoisoindolin-5-yl)piperazin-1-yl)methyl)piperidin-1-yl)methyl)-5-(ethyl(tetrahydro-2H-pyran-4-yl)amino)-4-methyl-[1,1′-biphenyl]-3-carboxamide] | B (B = degradation between 30% and 60%)
8 | CCN(c1cc(-c2ccc(OCCOCCOc3cc(-c4scnc4C)ccc3CNC(=O)[C@@H]3C[C@@H](O)CN3C(=O)[C@H](C(C)C)N3Cc4ccccc4C3=O)cc2)cc(C(=O)NCc2c(C)cc(C)[nH]c2=O)c1C)C1CCOCC1 [Compound 38, (2S,4R)-N-{[2-(2-{2-[4-(3-{[(4,6-dimethyl-2-oxo-1,2-dihydropyridin-3-yl)methyl]carbamoyl}-5-[ethyl(oxan-4-yl)amino]-4-methylphenyl)phenoxy]ethoxy}ethoxy)-4-(4-methyl-1,3-thiazol-5-yl)phenyl]methyl}-4-hydroxy-1-[(2S)-3-methyl-2-(1-oxo-2,3-dihydro-1H-isoindol-2-yl)butanoyl]pyrrolidine-2-carboxamide] | B (B = degradation between 30% and 60%)
9 | CCN(c1cc(-c2ccc(CCCOCCCCC(=O)N[C@H](C(=O)N3C[C@H](O)C[C@H]3C(=O)NCc3ccc(-c4scnc4C)cc3)C(C)(C)C)cc2)cc(C(=O)NCc2c(C)cc(C)[nH]c2=O)c1C)C1CCOCC1 [Compound 44, (2S,4R)-1-[(2S)-2-(5-{3-[4-(3-{[(4,6-dimethyl-2-oxo-1,2-dihydropyridin-3-yl)methyl]carbamoyl}-5-[ethyl(oxan-4-yl)amino]-4-methylphenyl)phenyl]propoxy}pentanamido)-3,3-dimethylbutanoyl]-4-hydroxy-N-{[4-(4-methyl-1,3-thiazol-5-yl)phenyl]methyl}pyrrolidine-2-carboxamide] | B (B = degradation between 30% and 60%)
10 | CCN(c1cc(-c2ccc(CCCOCCOCC(=O)N[C@H](C(=O)N3C[C@H](O)C[C@H]3C(=O)N[C@@H](C)c3ccc(-c4scnc4C)cc3)C(C)(C)C)cc2)cc(C(=O)NCc2c(C)cc(C)[nH]c2=O)c1C)C1CCOCC1 [Compound 89] | A (A = degradation more than 60%)
11 | CCN(c1cc(-c2ccc(COCCOc3ccc4c(c3)C(=O)N([C@H](C(=O)N3C[C@H](O)C[C@H]3C(=O)N[C@@H](C)c3ccc(-c5scnc5C)cc3)C(C)C)C4)cc2)cc(C(=O)NCc2c(C)cc(C)[nH]c2=O)c1C)C1CCOCC1 [Compound 99, (2S,4R)-1-((S)-2-(6-(2-((3′-((4,6-dimethyl-2-oxo-1,2-dihydropyridin-3-yl)methylcarbamoyl)-5′-(ethyl(tetrahydro-2H-pyran-4-yl)amino)-4′-methylbiphenyl-4-yl)methoxy)ethoxy)-1-oxoisoindolin-2-yl)-3-methylbutanoyl)-4-hydroxy-N—((S)-1-(4-(4-methylthiazol-5-yl)phenyl)ethyl)pyrrolidine-2-carboxamide] | A (A = degradation more than 60%)
12 | Cc1cc(C)c(CNC(=O)c2c(C)n(C(C)C3CCN(C(=O)COCCOCCOCC(=O)N[C@H](C(=O)N4C[C@H](O)C[C@H]4C(=O)NCc4ccc(-c5scnc5C)cc4)C(C)(C)C)CC3)c3ccccc23)c(=O)[nH]1 (stereo partly drawn) [Compound 9, N-[(4,6-dimethyl-2-oxo-1,2-dihydropyridin-3-yl)methyl]-1-{1-[1-(2-{2-[2-({[(2S)-1-[(2S,4R)-4-hydroxy-2-({[4-(4-methyl-1,3-thiazol-5-yl)phenyl]methyl}carbamoyl)pyrrolidin-1-yl]-3,3-dimethyl-1-oxobutan-2-yl]carbamoyl}methoxy)ethoxy]ethoxy}acetyl)piperidin-4-yl]ethyl}-2-methyl-1H-indole-3-carboxamide] | B (B = degradation between 30% and 60%)
13 | CCN(c1cc(-c2ccc(OCCCCOCCOCCOc3cc(-c4scnc4C)ccc3CNC(=O)[C@@H]3C[C@@H](O)CN3C(=O)[C@H](C(C)C)N3Cc4ccccc4C3=O)cc2)cc(C(=O)NCc2c(C)cc(C)[nH]c2=O)c1C)C1CCOCC1 [Compound 55, (2S,4R)-N-({2-[2-(2-{4-[4-(3-{[(4,6-dimethyl-2-oxo-1,2-dihydropyridin-3-yl)methyl]carbamoyl}-5-[ethyl(oxan-4-yl)amino]-4-methylphenyl)phenoxy]butoxy}ethoxy)ethoxy]-4-(4-methyl-1,3-thiazol-5-yl)phenyl}methyl)-4-hydroxy-1-[(2S)-3-methyl-2-(1-oxo-2,3-dihydro-1H-isoindol-2-yl)butanoyl]pyrrolidine-2-carboxamide] | B (B = degradation between 30% and 60%)
